PMC6690746 (European journal of medicinal chemistry, 2018)
pEC50: −log10 of the molar value. “Also recorded” adds a separate entry of the source.

Key:
Assay type in all cases: cell-based, human
T98G cells = test: Antitumor activity; conditions: for pEC50: Homo sapiens, read-out: Antitumor activity EC50; for Maximal killing activity: concentration not stated at this place; for Fold increase in EC50 value compared with 8: versus compound 8 (87 nM)
[1] = test system: NCI-60 cancer cell line panel; test: NCI 60 cell screen; conditions: for Loss in cell number: NCI-60, the 4 cell lines killed
HepG2 (liver) = test: Cell-killing activity; conditions: HepG2, at 1–10 μM
PD-GBM cells = test: Cell-killing activity in PD-GBM cells, all subtypes together; conditions: applied at 1–10 μM
[2] = NCI-60, the 11 cell lines with halted proliferation
[3] = NCI-60, the 41 cell lines with reduced proliferation rate

Structure (SMILES): COc1ccc(/C=C\c2cc(OC)c(OC)c(OC)c2)cc1O [Compound 1, combretastatin A-4, reference compound]
- Maximal killing (T98G cells; 72 h, at 10 nM): 30.4% ± 2.1
- pEC50 (T98G cells; 72 h): 9.22

Structure (SMILES): COC(=O)Nc1nc2cc(C(=O)c3cccs3)ccc2[nH]1 [Compound 3, nocodazole, reference compound]
- Maximal killing (% ± SEM) (T98G cells; 72 h, at 10 μM): 45.6% ± 1.7
- pEC50 (T98G cells; 72 h): 7.54

Structure (SMILES): CCn1c2ccccc2c2cc(C(=O)c3ccc(C)c4ccccc34)ccc21 [Compound 8, 9-ethyl-3-[(4-methylnaphthalen-1-yl)carbonyl]-9H-carbazole]
- Maximal killing activity (T98G cells; 72 h): 35–45%
- Loss in cell number [1]: 13% to 60%
- Percent growth inhibition [1, 2]: 9% to −1%
- Percent growth inhibition [1, 3]: 67% to 10%

Structure (SMILES): CCn1c2ccccc2c2cc(C(=O)N3CCN(C)CC3)ccc21 [Compound 9, 9-ethyl-3-(4-methylpiperazine-1-carbonyl)-9H-carbazole]
- Effect on T98G cells in words (T98G cells; 72 h): only weakly active at concentrations above five micromolar or essentially inactive; also recorded: did not significantly affect T98G cell viability

Structure (SMILES): CCn1c2ccccc2c2cc(C(=O)Cc3ccccc3)ccc21 [Compound 13, 1-(9-ethyl-9H-carbazol-3-yl)-2-phenylethan-1-one]
- Effect on T98G cells in words (T98G cells; 72 h): only weakly active at concentrations above five micromolar or essentially inactive; also recorded: did not significantly affect T98G cell viability

Structure (SMILES): CCn1c2ccccc2c2cc(C(=O)c3cccc4ccccc34)ccc21 [Compound 14, 9-ethyl-3-(naphthalene-1-carbonyl)-9H-carbazole]
- Fold increase in EC50 value compared with 8 (T98G cells): 20 fold

Structure (SMILES): CCCn1c2ccccc2c2cc(C(=O)c3ccc(C)c4ccccc34)ccc21 [Compound 16, 9-propyl-3-[(4-methylnaphthalen-1-yl)carbonyl]-9H-carbazole]
- Effect on T98G cells in words (T98G cells; 72 h): only weakly active at concentrations above five micromolar or essentially inactive; also recorded: did not significantly affect T98G cell viability
- Fold increase in EC50 value compared with 8 (T98G cells): 115 fold

Structure (SMILES): Cc1ccc(C(=O)c2ccc3c(c2)c2ccccc2n3CC(F)(F)F)c2ccccc12 [Compound 18, 3-(4-methylnaphthalene-1-carbonyl)-9-(2,2,2-trifluoroethyl)-9H-carbazole]
- Effect on T98G cells in words (T98G cells; 72 h): only weakly active at concentrations above five micromolar or essentially inactive
- Maximal killing activity (T98G cells; 72 h): 35–45%
- Fold increase in EC50 value compared with 8 (T98G cells): 64 fold

Structure (SMILES): CCn1c2ccccc2c2cc(C(=O)c3cccc4ncccc34)ccc21 [Compound 20, 9-ethyl-3-(quinoline-5-carbonyl)-9H-carbazole]
- Loss in cell number [1]: 13% to 60%
- Percent growth inhibition [1, 2]: 9% to −1%
- Percent growth inhibition [1, 3]: 67% to 10%

Structure (SMILES): CCn1c2ccccc2c2cc(C(=O)c3cccc4c3CCCN4)ccc21 [Compound 23]
- Effect on T98G cells in words (T98G cells; 72 h): only weakly active at concentrations above five micromolar or essentially inactive; also recorded: did not significantly affect T98G cell viability
- Effect on NCI-60 cell lines in words ([1]; NCI-60 panel): did not significantly affect the viability and proliferation of any of the cell lines
- Growth inhibition: Delta ([1]; NCI-60 panel): 10.42
- Growth inhibition: Mean ([1]; NCI-60 panel, over all cell lines): 102.05

Structure (SMILES): CCn1c2ccccc2c2cc(C(=O)c3cccc4c3NCCC4)ccc21 [Compound 24, 9-ethyl-3-(1,2,3,4-tetrahydroquinoline-8-carbonyl)-9H-carbazole]
- Effect on T98G cells in words (T98G cells; 72 h): only weakly active at concentrations above five micromolar or essentially inactive; also recorded: did not significantly affect T98G cell viability

Structure (SMILES): CCn1c2ccccc2c2cc(C(=O)N3CCCc4ccccc43)ccc21 [Compound 25, 9-ethyl-3-[(1,2,3,4-tetrahydroquinolin-1-yl)carbonyl]-9H-carbazole]
- Activity in HepG2 cells in words (HepG2 (liver)): inactive
- PD-GBM cells killed (PD-GBM cells): 95–100%

Structure (SMILES): CCn1c2ccccc2c2cc(C(=S)c3ccc(C)c4ccccc34)ccc21 [Compound 26, 9-ethyl-3-(4-methylnaphthalene-1-carbothioyl)-9H-carbazole]
- Effect on T98G cells in words (T98G cells; 72 h): only weakly active at concentrations above five micromolar or essentially inactive; also recorded: did not significantly affect T98G cell viability

Structure (SMILES): CCn1c2ccccc2c2cc(C(O)c3ccc(C)c4ccccc34)ccc21 (stereo not drawn) [Compound 27, (9-ethyl-9H-carbazol-3-yl)(4-methylnaphthalen-1-yl)methanol]
- Fold increase in EC50 value compared with 8 (T98G cells): 6 fold
- Loss in cell number [1]: 13% to 60%
- Percent growth inhibition [1, 2]: 9% to −1%
- Percent growth inhibition [1, 3]: 67% to 10%

Structure (SMILES): CCn1c2c(c3ccccc31)CN(C(=O)c1ccc(C)c3ccccc13)CC2 [Compound 35, 5-ethyl-2-[(4-methylnaphthalen-1-yl)carbonyl]-1H,2H,3H,4H,5H-pyrido[4,3-b]indole]
- Maximal killing activity (T98G cells; 72 h): 35–45%

Structure (SMILES): CC[C@]1(O)C[C@@H]2CN(CCc3c([nH]c4ccccc34)[C@@](C(=O)OC)(c3cc4c(cc3OC)N(C)[C@H]3[C@@](O)(C(=O)OC)[C@H](OC(C)=O)[C@]5(CC)C=CCN6CC[C@]43[C@@H]65)C2)C1 [vinblastine, reference compound]
- Maximal killing activity (T98G cells; 72 h): 36.0% ± 2.3
